In patent publication US20230365537A1, “POLO LIKE KINASE 4 INHIBITORS” (ORIC Pharmaceuticals, Inc., priority 2021, published 2023):
pIC50: −log10 of the molar value.

Experiments:
CHP-134 cells = test: CHP134 CellTiter-Glo (CTG) Assay; format: cell-based; details: Homo sapiens, CHP-134, 120 h, 5 days, viable cells by CellTiter-Glo
Procedure, shortened: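 CHP-134 cells seeded at 200 cells/well for 16 h, then given nine 1:3 serial dilutions in quadruplicate at 37° C, 5% CO2. Viable cells measured by CellTiter-Glo luminescence after 5 days; IC50 calculated from curves.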

[1] = target: human recombinant Aurora A (Homo sapiens (Human), UniProt O14965); test: Aurora A Kinase Biochemical Assay (ADP-Glo); details: ratio of Aurora A IC50 to PLK4 IC50 (selectivity)
human recombinant PLK4 = human recombinant PLK4 (Homo sapiens (Human), UniProt O00444); test: PLK4 Biochemical Assay (ADP-Glo); details: 0.5 nM PLK4, 8.0 µM ATP, 4.7 µM MBP, 6 hours at RT
Procedure, shortened: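 Recombinant human PLK4 (added at 1.0 nM) was preincubated 15 min at RT with compound in 50 mM HEPES pH 7.5, 10 mM MgCl2, 1 mM EGTA, 1 mM DTT, 0.01% Brij-35, 0.01% BSA. ADP formed was detected by ADP-Glo luminescence (40 min ATP depletion, 30 min detection). IC50 came from a four-parameter fit.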

[2] = target: human recombinant Aurora B (Homo sapiens (Human), UniProt Q96GD4); test: Aurora B Kinase Biochemical Assay (ADP-Glo); details: ratio of Aurora B IC50 to PLK4 IC50 (selectivity)
Procedure, shortened: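 Recombinant human Aurora B (20 nM in pH 7.5 HEPES buffer with MgCl2, EGTA, DTT, Brij-35, BSA) preincubated with compound 15 min at RT. ADP formed quantified by ADP-Glo luminescence after ATP depletion (40 min) and detection (30 min). IC50 from four-parameter non-linear regression.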

Chain of human recombinant Aurora A (O14965 whole entry): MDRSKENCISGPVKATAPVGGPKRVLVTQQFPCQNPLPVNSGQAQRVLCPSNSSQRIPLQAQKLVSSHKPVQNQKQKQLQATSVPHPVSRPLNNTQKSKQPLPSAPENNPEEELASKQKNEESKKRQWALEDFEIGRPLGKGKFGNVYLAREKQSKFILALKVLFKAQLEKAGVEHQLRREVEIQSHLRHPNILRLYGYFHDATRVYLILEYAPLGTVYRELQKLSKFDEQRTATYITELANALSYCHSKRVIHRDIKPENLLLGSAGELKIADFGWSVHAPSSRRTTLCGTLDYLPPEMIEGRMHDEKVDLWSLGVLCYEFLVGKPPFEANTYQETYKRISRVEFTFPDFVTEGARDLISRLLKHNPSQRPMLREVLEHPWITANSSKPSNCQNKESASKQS
Chain of human recombinant Aurora B (Q96GD4 whole entry): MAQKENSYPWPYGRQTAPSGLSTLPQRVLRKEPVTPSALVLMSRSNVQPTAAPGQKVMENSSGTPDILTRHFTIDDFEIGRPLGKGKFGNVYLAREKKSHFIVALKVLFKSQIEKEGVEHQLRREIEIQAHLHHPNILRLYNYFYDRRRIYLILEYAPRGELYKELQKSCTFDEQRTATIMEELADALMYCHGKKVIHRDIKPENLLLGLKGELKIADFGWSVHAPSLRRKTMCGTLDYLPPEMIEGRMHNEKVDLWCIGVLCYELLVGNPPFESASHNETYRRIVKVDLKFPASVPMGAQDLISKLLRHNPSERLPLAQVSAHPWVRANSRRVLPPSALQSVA
Chain of human recombinant PLK4 (O00444 whole entry): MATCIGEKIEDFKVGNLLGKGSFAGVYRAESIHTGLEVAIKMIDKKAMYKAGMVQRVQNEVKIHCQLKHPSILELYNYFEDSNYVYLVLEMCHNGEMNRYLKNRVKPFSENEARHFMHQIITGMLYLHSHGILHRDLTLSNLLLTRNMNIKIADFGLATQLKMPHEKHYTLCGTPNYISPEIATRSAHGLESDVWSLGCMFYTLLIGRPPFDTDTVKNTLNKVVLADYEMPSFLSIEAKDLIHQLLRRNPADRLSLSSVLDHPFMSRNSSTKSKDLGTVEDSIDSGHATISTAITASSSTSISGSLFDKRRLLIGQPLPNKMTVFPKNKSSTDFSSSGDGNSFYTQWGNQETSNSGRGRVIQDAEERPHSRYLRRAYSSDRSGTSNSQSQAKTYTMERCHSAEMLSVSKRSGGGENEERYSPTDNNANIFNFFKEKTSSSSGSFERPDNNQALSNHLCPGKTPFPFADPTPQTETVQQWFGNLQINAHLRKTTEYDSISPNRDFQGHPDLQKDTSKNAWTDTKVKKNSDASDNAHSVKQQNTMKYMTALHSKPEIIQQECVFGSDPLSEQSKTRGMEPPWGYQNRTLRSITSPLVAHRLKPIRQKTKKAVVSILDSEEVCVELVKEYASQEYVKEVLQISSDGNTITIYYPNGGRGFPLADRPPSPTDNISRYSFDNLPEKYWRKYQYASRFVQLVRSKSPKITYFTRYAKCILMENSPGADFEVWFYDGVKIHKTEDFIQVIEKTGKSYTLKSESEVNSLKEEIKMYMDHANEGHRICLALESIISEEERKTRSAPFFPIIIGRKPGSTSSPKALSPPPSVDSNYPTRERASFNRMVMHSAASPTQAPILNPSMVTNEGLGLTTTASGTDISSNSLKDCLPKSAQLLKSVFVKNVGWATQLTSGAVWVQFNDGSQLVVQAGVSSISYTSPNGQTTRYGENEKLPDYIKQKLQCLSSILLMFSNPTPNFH

Row | Compound | pIC50 (CHP-134 cells) | [Aurora A IC50 (nM)]/[PLK4 IC50 (nM)] [1] | pIC50 (human recombinant PLK4) | [Aurora B IC50 (nM)]/[PLK4 IC50 (nM)] [2]
1 | CCOc1cnc(SC)nc1Nc1n[nH]c2cc([C@@H]3C[C@@]34C(=O)Nc3ccc(OC)cc34)ccc12 [Example 195, (1R,2S)-2-(3-{[5-ethoxy-2-(methylsulfanyl)pyrimidin-4-yl]amino)-1H-indazol-6-yl)-5′-methoxyspiro[cyclopropane-1,3′-indol]-2′(1′H)-one] | 6.80 | 3459.6154 | 8.81 | 740.3846
2 | COc1ccc2c(c1)[C@]1(C[C@H]1c1ccc3c(Nc4nc(S(C)(=O)=O)ccc4OC)n[nH]c3c1)C(=O)N2 [Example 196, (1R,2S)-2-(3-{[6-(methanesulfonyl)-3-methoxypyridin-2-yl]amino}-1H-indazol-6-yl)-5′-methoxyspiro[cyclopropane-1,3′-indol]-2′(1′H)-one] | 5.78 | 732.3689 | 8.48 | 100.8137
3 | COc1ccc2c(c1)[C@]1(C[C@H]1c1ccc3c(Nc4ncc(C(=O)N(C)C)cc4OC)n[nH]c3c1)C(=O)N2 [Example 197, 5-methoxy-6-({6-[(1R,2S)-5′-methoxy-2′-oxo-1′,2′-dihydrospiro[cyclopropane-1,3′-indol]-2-yl]-1H-indazol-3-yl}amino)-N,N-dimethylpyridine-3-carboxamide] | 5.97 | 1243.4944 | 8.97 | 73.8197
4 | COc1ccc2c(c1)[C@]1(C[C@H]1c1ccc3c(Nc4cc(C(=O)N(C)C)ncc4OC)n[nH]c3c1)C(=O)N2 [Example 198, 5-methoxy-4-({6-[(1R,2S)-5′-methoxy-2′-oxo-1′,2′-dibydrospiro[cyclopropane-1,3′-indol]-2-yl]-1H-indazol-3-yl}amino)-N,N-dimethylpyridine-2-carboxamide] | 5.00 | 5752.4160 | 8.06 | 5752.4160
5 | COc1ccc2c(c1)[C@]1(C[C@H]1c1ccc3c(Nc4ccc(C(=O)N5CCOCC5)cc4OC)n[nH]c3c1)C(=O)N2 [Example 199, (1R,2S)-5′-methoxy-2-{3-[2-methoxy-4-(morpholine-4-carbonyl)anilino]-1H-indazol-6-yl}spiro[cyclopropane-1,3′-indol]-2′(1′H)-one] | 6.97 | 439.9441 | 9.15 | 57.7095
6 | CCOc1nc(S(C)(=O)=O)ccc1Nc1n[nH]c2cc([C@@H]3C[C@@]34C(=O)Nc3ccc(OC)cc34)ccc12 [Example 202, (1R,2S)-2-(3-{[2-ethoxy-6-(methanesulfonyl)pyridin-3-yl]amino}-1H-indazol-6-yl)-5′-methoxyspiro[cyclopropane-1,3′-indol]-2′(1′H)-one] | 6.37 | 1031.3433 | 8.57 | 321.4179
7 | CCOc1cc(C(=O)N(C)C)cnc1Nc1n[nH]c2cc([C@@H]3C[C@@]34C(=O)Nc3ccc(OC)cc34)ccc12 [Example 203, 5-ethoxy-6-({6-[(1R,2S)-5′-methoxy-2′-oxo-1’,2′-dihydrospiro[cyclopropane-1,3′-indol]-2-yl]-1H-indazol-3-yl}amino)-N,N-dimethylpyridine-3-carboxamide] | 6.49 | 2922.2649 | 8.98 | 333.7812
8 | COc1ccc2c(c1)[C@]1(C[C@H]1c1ccc3c(Nc4ncc(S(=O)(=O)N(C)C)cc4OC)n[nH]c3c1)C(=O)N2 [Example 204, 5-methoxy-6-({6-[(1R,2S)-5′-methoxy-2′-oxo-1’,2′-dihydrospiro[cyclopropane-1,3′-indol]-2-yl]-1H-indazol-3-yl}amino)-N,N-dimethylpyridine-3-sulfonamide] | 6.91 | 342.9630 | 9.09 | 222.8395
9 | COc1ccc2c(c1)[C@]1(C[C@H]1c1ccc3c(Nc4ccc(P(C)(C)=O)nc4OC)n[nH]c3c1)C(=O)N2 [Example 205, (1R,2S)-2-(3-{[6-(dimethylphosphoryl)-2-methoxypyridin-3-yl]amino}-1H-indazol-6-yl)-5′-methoxyspiro[cyclopropane-1,3′-indol]-2′(1′H)-one] | 5.46 | 737.5152 | 8.78 | 235.7491
10 | CCOc1cc(S(C)(=O)=O)cnc1Nc1n[nH]c2cc([C@@H]3C[C@@]34C(=O)Nc3ccc(OC)cc34)ccc12 [Example 208, (1R,2S)-2-(3-{[3-ethoxy-5-(methanesulfonyl)pyridin-2-yl]amino}-1H-indazol-6-yl)-5′-methoxyspiro[cyclopropano-1,3′-indol]-2′(1′H)-one] | 6.40 | 7904 | 9.05 | 2471
11 | CCS(=O)(=O)c1ccc(Nc2n[nH]c3cc([C@@H]4C[C@@]45C(=O)Nc4ccc(OC)cc45)ccc23)c(OC)n1 [Example 209, (1R,2S)-2-(3-{[6-(ethanesulfonyl)-2-methoxypyridin-3-yl]amino}-1H-indazol-6-yl)-5′-methoxyspiro[cyclopropane-1,3′-indol]-2′(1′H)-one] | 6.22 | 273.2595 | 8.81 | 254.6519
12 | CNS(=O)(=O)c1cc(OC)c(Nc2n[nH]c3cc([C@@H]4C[C@@]45C(=O)Nc4ccc(OC)cc45)ccc23)cc1C [Example 210, 5-methoxy-4-({6-[(1R,2S)-5′-methoxy-2′-oxo-1′,2′-dihydrospiro[cyclopropane-1,3′-indol]-2-yl]-1H-indazol-3-yl}amino)-N,2-dimethylbenzene-1-sulfonamide] | 7.18 | 462.3887 | 8.87 | 316.5430
13 | COc1ccc2c(c1)[C@]1(C[C@H]1c1ccc3c(Nc4cc(OC)c(S(N)(=O)=O)cc4OC)n[nH]c3c1)C(=O)N2 [Example 212, 2,5-Dimethoxy-4-({6-[(1R,2S)-5′-methoxy-2′-oxo-l′,2′-dihydrospiro[cyclopropane-1,3′-indol]-2-yl]-1H-indazol-3-yl}amino)benzene-1-sulfonamide] | 6.79 | 353.1230 | 8.80 | 280
14 | COc1ccc2c(c1)[C@]1(C[C@H]1c1ccc3c(Nc4nc(N(C)C)nc5c4CCC5)n[nH]c3c1)C(=O)N2 [Example 213, (1R,2S)-2-(3-{[2-(dimethylamino)-6,7-dihydro-5H-cyclopenta[d]pyrimidin-4-yl]amino}-1H-indazol-6-yl)-5′-methoxyspiro[cyclopropane-1,3′-indol]-2′(1′H)-one] | 6.72 | 92.2102 | 8.67 | 225.3871
15 | CCOc1nc(C(=O)N(C)C)ccc1Nc1n[nH]c2cc([C@@H]3C[C@@]34C(=O)Nc3ccc(OC)cc34)ccc12 [Example 214, 6-ethoxy-5-({6-[(1R,2S)-5′-methoxy-2′-oxo-1′,2′-dihydrospiro[cyclopropane-1,3′-indol]-1-yl]-1H-indazol-3-yl}amino)-N,N-dimethylpyridine-2-carboxamide] | 7.49 | 953 | 9.00 | 59.0999
16 | COc1ccc2c(c1)[C@]1(C[C@H]1c1ccc3c(Nc4ccc(N5CCCC5=O)nc4OC)n[nH]c3c1)C(=O)N2 [Example 215, (1R,2S)-5′-methoxy-2-(3-{[2-methoxy-6-(2-oxopyrrolidin-1-yl)pyridin-3-yl]amino}-1H-indazol-6-yl)spiro[cyclopropane-1,3′-indol]-2′(1′H)-one] | 6.72 | 986.6539 | 8.68 | 53.57
17 | COc1ccc2c(c1)[C@]1(C[C@H]1c1ccc3c(Nc4cc(S(=O)(=O)N5CCOCC5)ccc4OC)n[nH]c3c1)C(=O)N2 [Example 216, (1R,2S)-5′-methoxy-2-{3-[2-methoxy-5-(morpholine-4-sulfonyl)anilino]-1H-indazol-6-yl}spiro[cyclopropane-1,3′-indol]-2′(1′H)-one] | 6.12 | 7712 | 8.57 | 18601.19048
18 | COc1ccc2c(c1)[C@]1(C[C@H]1c1ccc3c(Nc4nc5cccnc5cc4OC)n[nH]c3c1)C(=O)N2 [Example 217, (1R,2S)-5′-methoxy-2-{3-[(3-methoxy-1,5-naphthyridin-2-yl)amino]-1H-indazol-6-yl}spiro[cyclopropane-1,3′-indol]-2′(1′H)-one] | 6.35 | 416.7367 | 8.92 | 170.9840
